“And” between values parts separate entries of the source, which are not always exact repeats. Identical values can stand only once.
Experiments:
Human recombinant Top1 = molecular target: T1, Human recombinant Top1 (Homo sapiens, UniProt P11387); assay: Topoisomerase I-mediated DNA cleavage reactions; assay type: biochemical; design: key to activity of the compounds to produce Top1-mediated DNA cleavage: +: weak activity; ++ and +++: moderate activity; ++ and +++: moderate activity; ++++: similar activity as 1 μM camptothecin; details: for Top1 inhibitory activity in Top1-mediated DNA cleavage assay: semi-quantitative scale from 0 to ++++, relative to CPT at 1 μM; for activity of the compounds to produce Top1-mediated DNA cleavage: semiquantitative, tested at 0.1 μM, 1 μM, 10 μM, 100 μM, relative to 1 μM camptothecin
T1 construct: made in house
T1 sequence (P11387 1-765): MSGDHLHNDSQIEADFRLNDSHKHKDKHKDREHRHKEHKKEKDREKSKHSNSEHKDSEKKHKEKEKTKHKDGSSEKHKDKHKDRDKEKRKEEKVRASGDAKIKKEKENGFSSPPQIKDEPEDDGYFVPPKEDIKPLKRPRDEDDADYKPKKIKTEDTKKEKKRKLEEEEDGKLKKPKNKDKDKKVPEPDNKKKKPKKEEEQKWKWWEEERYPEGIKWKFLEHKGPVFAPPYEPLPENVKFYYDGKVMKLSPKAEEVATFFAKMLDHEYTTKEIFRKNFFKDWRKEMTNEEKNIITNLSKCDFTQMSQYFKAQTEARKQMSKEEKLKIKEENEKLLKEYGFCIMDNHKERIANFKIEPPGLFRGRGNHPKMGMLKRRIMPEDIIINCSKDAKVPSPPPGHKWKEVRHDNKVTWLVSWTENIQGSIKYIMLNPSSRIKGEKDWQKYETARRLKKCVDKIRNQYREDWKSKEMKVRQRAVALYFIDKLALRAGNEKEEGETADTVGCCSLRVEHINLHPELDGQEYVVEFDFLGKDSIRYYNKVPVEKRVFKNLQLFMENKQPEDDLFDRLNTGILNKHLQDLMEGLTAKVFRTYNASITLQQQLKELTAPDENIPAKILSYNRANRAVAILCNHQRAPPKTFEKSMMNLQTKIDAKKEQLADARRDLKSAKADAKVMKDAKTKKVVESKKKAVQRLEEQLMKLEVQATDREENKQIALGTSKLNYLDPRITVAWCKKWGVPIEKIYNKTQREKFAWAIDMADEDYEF
Procedure: Topoisomerase I-Mediated DNA Cleavage Reactions. Human recombinant Top1 was purified from Baculovirus as described previously.^34 The 161 bp fragment from pBluescript SK(−) phagemid DNA (Stratagene, La Jolla, Calif.) was cleaved with the restriction endonucleases PvuII and HindIII (New England Biolabs, Beverly, Mass.) supplied in NE buffer 2 (50 μL reactions) for 1 h at 37° C., and separated by electrophoresis in a 1% agarose gel made in 1×TBE buffer. The 161 bp fragment was eluted from the gel slice using the QIAEX II kit (QIAGEN Inc., Valencia, Calif.). Approximately 200 ng of the fragment was 3′-end labeled at the HindIII site by fill-in reaction with [alpha-^32P]-dGTP and 0.5 mM dATP, dCTP, and dTTP, in React 2 buffer (50 mM Tris-HCl, pH 8.0, […], 50 mM NaCl) with 0.5 unit of DNA polymerase I (Klenow fragment). Unincorporated ^32P-dGTP was removed using mini Quick Spin DNA columns (Roche, Indianapolis, Ind.), and the eluate containing the 3′-end-labeled 161 bp fragment was collected. Aliquots (approximately 50,000 dpm/reaction) were incubated with topoisomerase I at 22° C. for 30 min in the presence of the tested drug. Reactions were terminated by adding SDS (0.5% final concentration). The samples (10 μL) were mixed with 30 μL of loading buffer (80% formamide, 10 mM sodium hydroxide, 1 mM sodium EDTA, 0.1% xylene cyanol, and 0.1% bromophenol blue, pH 8.0). Aliquots were separated in denaturing gels (16% polyacrylamine, 7 M urea). Gels were dried and visualized by using a Phosphoimager and ImageQuant software (Molecular Dynamics, Sunnyvale, Calif.). Each gel included a sample of DNA alone, DNA with only the drug, and DNA with Top I without the drug. The compounds described herein were tested at concentrations of 0.1 μM, 1 μM, 10 μM, 100 μM. The activity of the compounds to produce Top1-mediated DNA cleavage is expressed semiquantitatively as follows: +: weak activity; ++ and +++: moderate activity; ++++: similar activity as 1 μM camptothecin. Results: 33, 0; 34, 0; 32, ++; 31, +++; 30, +; 29, +; 28, 0; and 19, 0.
Biological Results.All of the target compounds were tested for induction of DNA damage in Top1-mediated DNA cleavage assays. The results of this assay are designated relative to the Top1 inhibitory activity of CPT and expressed in semi-quantitative fashion on the scale from 0, no detectable activity, to ++++, similar activity to that of compound 1 at a concentration of 1 μM. […] Compounds 29 and 30, containing an N-(3-morpholinylpropyl) or an N-(3-imidazolylpropyl), respectively were Top1 inhibitors, but only at the lower + level. Without being bound by theory, it is believed that the loss of Top1 inhibitory activity with expansion of the five-membered indenone ring of the indenoisoquinoline to the six-membered ring of compounds described herein might result from the decreased overall solubility, especially for 14, 19, and 28, rather than differences in intercalation between DNA base pairs at the Top1 cleavage site. With 29 and 30, incorporation of amines increased water solubility and affinity toward DNA, possibly due to attraction of their positively charged protonated amines with the phosphates of the DNA backbone.

[1] = Solubility in organic solvents; assay type: physicochemical; details: relative to their precursors 14 and 29
UACC-62 = assay: NCI screen antiproliferative activity, melanoma UACC-62; assay type: cell-based; details: Homo sapiens, concentration for 50% growth inhibition
Procedure: (§1) The antipoliferative activity of each compound was tested against 55 different human cancer cell lines in the National Cancer Institute screen.^32, 33 The chlorodibenzonaphthyridinone 32 bearing a morpholinopropyl chain on the lactam nitrogen was cytotoxic to human cancer cells at low micromolar concentrations. The cytotoxicities of 32 in selected cell lines are presented in Table 1, along with the mean graph midpoint value of 5.6 μM. In general, cytotoxicity GI50 values appeared to be in the low micromolar range, although 32 was particularly cytotoxic in the leukemia K-562 and RPMI-8226 cell lines, the ovarian IGROV1 cancer cell line, the renal UO-31 cancer cell line, and the breast MCF7 cancer cell line.

DU-145 = assay: NCI screen antiproliferative activity, prostate DU-145; assay type: cell-based; details: Homo sapiens, concentration for 50% growth inhibition
Procedure: as §1

UO-31 = assay: NCI screen antiproliferative activity, renal UO-31; assay type: cell-based; details: Homo sapiens, concentration for 50% growth inhibition
Procedure: as §1

SF-539 = assay: NCI screen antiproliferative activity, CNS SF-539; assay type: cell-based; details: Homo sapiens, concentration for 50% growth inhibition
Procedure: as §1

SN12C = assay: NCI screen antiproliferative activity, renal SN12C; assay type: cell-based; details: Homo sapiens, concentration for 50% growth inhibition
Procedure: as §1

K-562 = assay: NCI screen antiproliferative activity, leukemia K-562; assay type: cell-based; details: Homo sapiens, K562, concentration for 50% growth inhibition
Procedure: as §1

COLO 205 = assay: NCI screen antiproliferative activity, colon COLO 205; assay type: cell-based; details: Homo sapiens, concentration for 50% growth inhibition
Procedure: as §1

HCT-116 = assay: NCI screen antiproliferative activity, colon HCT-116; assay type: cell-based; details: Homo sapiens, concentration for 50% growth inhibition
Procedure: as §1

HOP-62 = assay: NCI screen antiproliferative activity, lung HOP-62; assay type: cell-based; details: Homo sapiens, concentration for 50% growth inhibition
Procedure: as §1

RPMI-8226 = assay: NCI screen antiproliferative activity, leukemia RPMI-8226; assay type: cell-based; details: Homo sapiens, concentration for 50% growth inhibition
Procedure: as §1

IGROV1 = assay: NCI screen antiproliferative activity, ovarian IGROV1; assay type: cell-based; details: Homo sapiens, IGROV-1, concentration for 50% growth inhibition
Procedure: as §1

OVCAR-3 = assay: NCI screen antiproliferative activity, ovarian OVCAR-3; assay type: cell-based; details: Homo sapiens, concentration for 50% growth inhibition
Procedure: as §1

MCF7 = assay: NCI screen antiproliferative activity, breast MCF7; assay type: cell-based; details: Homo sapiens, concentration for 50% growth inhibition
Procedure: as §1

[2] = test system: all human cancer cell lines successfully tested; assay: NCI screen mean graph midpoint for growth inhibition; assay type: cell-based; details: mean over all human cancer cell lines successfully tested
Procedure: as §1

[3] = Top1-mediated DNA fragmentation pattern, compared with indenoisoquinolines

COc1cc2c(=O)n(C)c3c4ccccc4[nH]c(=O)c3c2cc1OC [Compound 14, 8,9-Dimethoxy-5-methyldibenzo[c,h][1,6]naphthyridine-6,11(5H,12H)-dione]
Top1 inhibitory activity in Top1-mediated DNA cleavage assay (Human recombinant Top1): no detectable inhibition and 0

C=CCn1c(=O)c2cc(OC)c(OC)cc2c2c(=O)[nH]c3ccccc3c21 [Compound 19, 5-Allyl-8,9-dimethoxydibenzo[c,h][1,6]naphthyridine-6,11(5H,12H)-dione]
Top1 inhibitory activity in Top1-mediated DNA cleavage assay (Human recombinant Top1): no detectable inhibition | activity of the compounds to produce Top1-mediated DNA cleavage (Human recombinant Top1): 0

COc1cc2c(=O)n(C)c3c4ccccc4nc(Cl)c3c2cc1OC [Compound 31, 11-Chloro-8,9-dimethoxy-5-methyldibenzo[c,h][1,6]naphthyridin-6(5H)-one]
cleavage band intensity at base pair 97 (Human recombinant Top1; [3]): more intense | cleavage band intensity at base pairs 44 and 68 (Human recombinant Top1; [3]): weak | activity of the compounds to produce Top1-mediated DNA cleavage (Human recombinant Top1): +++ | solubilities in solvents like DMSO, methanol and chloroform [1]: increased substantially

COc1cc2c(=O)n(CCCN3CCOCC3)c3c4ccccc4[nH]c(=O)c3c2cc1OC [Compound 29, 8,9-Dimethoxy-5-(3-morpholinopropyl)dibenzo[c,h][1,6]naphthyridine-6,11(5H,12H)-dione]
activity of the compounds to produce Top1-mediated DNA cleavage (Human recombinant Top1): +

COc1cc2c(=O)n(CCCn3ccnc3)c3c4ccccc4[nH]c(=O)c3c2cc1OC [Compound 30, 5-(3-(1H-Imidazol-1-yl)propyl)-8,9-dimethoxydibenzo[c,h][1,6]-naphthyridine-6,11(5H,12H)dione]
activity of the compounds to produce Top1-mediated DNA cleavage (Human recombinant Top1): +

COc1cc2c(Cl)nc3c4ccccc4nc(Cl)c3c2cc1OC [Compound 33, 6,11-Dichloro-8,9-dimethoxydibenzo[c,h][1,6]naphthyridine]
Top1 inhibitory activity in Top1-mediated DNA cleavage assay (Human recombinant Top1): loss of activity | activity of the compounds to produce Top1-mediated DNA cleavage (Human recombinant Top1): 0

COc1cc2c(=O)n(CCCN3CCOCC3)c3c4ccccc4nc(Cl)c3c2cc1OC [Compound 32, 11-Chloro-8,9-dimethoxy-5-(3-morpholinopropyl)dibenzo[c,h][1,6]-naphthyridin-6(5H)-one]
GI50 (UACC-62): 6.8 µM | GI50 (DU-145): 10.5 µM | GI50 (UO-31): 0.02 µM | GI50 (SF-539): 12.3 µM | DNA cleavage sites with significant band intensity (Human recombinant Top1; Top1-mediated DNA fragmentation pattern): only bands for cleavages at the 97 and 119 sites are intense enough to be significant | activity of the compounds to produce Top1-mediated DNA cleavage (Human recombinant Top1): ++ | GI50 (SN12C): 13.2 µM | GI50 (K-562): 0.2 µM | GI50 (COLO 205): 0.33 µM | GI50 (HCT-116): 4.16 µM | GI50 (HOP-62): 4.7 µM | GI50 (RPMI-8226): 0.1 µM | GI50 (IGROV1): 0.03 µM | GI50 (OVCAR-3): 6.3 µM | solubilities in solvents like DMSO, methanol and chloroform [1]: increased substantially | GI50 (MCF7): 0.4 µM | melting point: 185 to 190 °C (dec.) | MGM (mean GI50 across cell lines) [2]: 5.6 µM

COc1cc2c(OC)nc3c4ccccc4nc(OC)c3c2cc1OC [Compound 34, 6,8,9,11-Tetramethoxydibenzo[c,h][1,6]naphthyridine]
Top1 inhibitory activity in Top1-mediated DNA cleavage assay (Human recombinant Top1): loss of activity | activity of the compounds to produce Top1-mediated DNA cleavage (Human recombinant Top1): 0

COc1cc2c(=O)n(CCCO)c3c4ccccc4[nH]c(=O)c3c2cc1OC [Compound 28, 5-(3-Hydroxypropyl)-8,9-dimethoxydibenzo[c,h][1,6]naphthyridine-6,11(5H,12H)-dione]
Top1 inhibitory activity in Top1-mediated DNA cleavage assay (Human recombinant Top1): no detectable inhibition | activity of the compounds to produce Top1-mediated DNA cleavage (Human recombinant Top1): 0
